Experimental data reported in publication PMC4956231, “Molecular Mechanisms for Drug Hypersensitivity Induced by the Malaria Parasite’s Chloroquine Resistance Transporter” (PLoS Pathogens, 2016).

Target: 76I-PfCRT^K1 (Plasmodium falciparum, UniProt Q9N623, A220S/K76I/M74I/N326S/N75E/Q271E/R371I)
Test: Inhibition of PfCRT-mediated [3H]CQ transport in oocytes
Type: cell-based
Settings: via 76I-PfCRT^K1 in oocytes
Experimental: For each treatment, 10 oocytes were transferred to a 5 mL polystyrene round bottom tube (Falcon) and washed twice with 3.5 mL of ND96 buffer, with the residual buffer removed by pipette. […] The assay was terminated by removing the reaction buffer with a pipette and washing the oocytes twice with 3.5 mL of ice-cold ND96 buffer. Each oocyte was transferred to a separate well of a white 96-well plate (NUNC or PerkinElmer), incubated overnight at room temperature in 30 μL of 10% SDS, and mixed on an orbital shaker the following day for approximately 5 min. The lysed oocyte was then combined with 150 μL of MicroScint-40 microscintillant (PerkinElmer), the plate covered with a TopSeal-A (PerkinElmer), and the radioactivity measured with a PerkinElmer MicroBeta^2 microplate liquid scintillation analyzer.
The IC50 values presented in Fig 3A were determined in SigmaPlot by a least-squares fit of the equation y = y min + [(y max—y min)/(1 + ([inhibitor]/IC50)c] to the data, where y is PfCRT-mediated CQ transport, y min and y max are the minimum and maximum values of y, and c is a fitted constant. PfCRT-mediated CQ transport was calculated by subtracting the uptake measured in the control oocytes (oocytes expressing 76K PfCRT^K1) from that in oocytes expressing 76I-PfCRT^K1 or 76I,369F-PfCRT^K1.

Sequence of 76I-PfCRT^K1 (Q9N623 whole entry A220S/K76I/M74I/N326S/N75E/Q271E/R371I): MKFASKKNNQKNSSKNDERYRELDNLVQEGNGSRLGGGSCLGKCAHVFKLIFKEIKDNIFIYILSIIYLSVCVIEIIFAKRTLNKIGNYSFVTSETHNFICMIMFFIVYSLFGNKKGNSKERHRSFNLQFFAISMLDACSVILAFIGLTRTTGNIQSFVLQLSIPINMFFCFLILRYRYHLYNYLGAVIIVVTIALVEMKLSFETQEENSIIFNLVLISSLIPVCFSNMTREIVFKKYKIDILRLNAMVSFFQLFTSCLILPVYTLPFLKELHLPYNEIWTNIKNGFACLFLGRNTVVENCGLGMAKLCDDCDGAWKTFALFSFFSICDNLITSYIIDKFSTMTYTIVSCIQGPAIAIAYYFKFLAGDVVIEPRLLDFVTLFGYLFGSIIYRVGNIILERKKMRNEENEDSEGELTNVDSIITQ

## NC12CC3CC(CC(C3)C1)C2 [amantadine]
  IC50: 186 ± 16 µM
